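Cells were grown in 96-well plates and exposed to each compound for 48 hours at five concentrations; endpoints were interpolated linearly between bracketing concentrations, or set to the highest concentration if not reached. GI50: concentration for 50% inhibition of growth.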 Activity calls are given as the source filed them. No stated cut-off is given here; in the data, active = GI50 up to about 1.1 µM and inactive = higher.
Assays:
Assay in all cases: growth of human tumour cells (NCI), 48 h
CAKI-1 = system: CAKI-1
PC-3 = system: PC-3
786-0 = system: 786-0
T47D = system: T47D
IGROV-1 = system: IGROV-1
COLO 205 = system: COLO 205
OVCAR-3 = system: OVCAR-3
Hs-578T = system: Hs-578T
NCI-H23 = system: NCI-H23
LOX IMVI = system: LOX IMVI
A549 = system: A549
DU-145 = system: DU-145
MDA-MB-435 = system: MDA-MB-435
MDA-N = system: MDA-N
NCI/ADR-RES = system: NCI/ADR-RES
MCF7 = system: MCF7
OVCAR-5 = system: OVCAR-5
BT-549 = system: BT-549

| Compound | GI50 (CAKI-1) | GI50 (PC-3) | GI50 (786-0) | GI50 (T47D) | GI50 (IGROV-1) | GI50 (COLO 205) | GI50 (OVCAR-3) | GI50 (Hs-578T) | GI50 (NCI-H23) | GI50 (LOX IMVI) | GI50 (A549) | GI50 (DU-145) | GI50 (MDA-MB-435) | GI50 (MDA-N) | GI50 (NCI/ADR-RES) | GI50 (MCF7) | GI50 (OVCAR-5) | GI50 (BT-549) |
| --- | --- | --- | --- | --- | --- | --- | --- | --- | --- | --- | --- | --- | --- | --- | --- | --- | --- | --- |
| CCOC(=O)C(Cl)(NC(=O)OCc1ccccc1)C(F)(F)F (stereo unspecified) | > 100 µM (inactive) | > 100 µM (inactive) | > 100 µM (inactive) | > 100 µM (inactive) | > 100 µM (inactive) | > 100 µM (inactive) | > 100 µM (inactive) | > 100 µM (inactive) | > 100 µM (inactive) | > 100 µM (inactive) | > 100 µM (inactive) | > 100 µM (inactive) | > 100 µM (inactive) | > 100 µM (inactive) | > 100 µM (inactive) | > 100 µM (inactive) | > 100 µM (inactive) | – |
| CNC(=O)N(CCC#N)CCN(C(=O)NC)c1ccccc1 | > 100 µM (inactive) | > 100 µM (inactive) | > 100 µM (inactive) | > 100 µM (inactive) | > 100 µM (inactive) | > 100 µM (inactive) | > 100 µM (inactive) | – | > 100 µM (inactive) | > 100 µM (inactive) | > 100 µM (inactive) | > 100 µM (inactive) | > 100 µM (inactive) | > 100 µM (inactive) | > 100 µM (inactive) | > 100 µM (inactive) | > 100 µM (inactive) | > 100 µM (inactive) |
| O=C1O[C@H](c2ccc3c(c2)OCO3)[C@H]2CO[C@@H](c3ccc4c(c3)OCO4)[C@@H]12 | 77.8 µM (inactive) | > 100 µM (inactive) | > 100 µM (inactive) | – | > 100 µM (inactive) | 85.5 µM (inactive) | – | > 100 µM (inactive) | 78.7 µM (inactive) | > 100 µM (inactive) | > 100 µM (inactive) | – | > 100 µM (inactive) | > 100 µM (inactive) | 74.1 µM (inactive) | > 100 µM (inactive) | > 100 µM (inactive) | > 100 µM (inactive) |
| CC(C)Oc1c(O)c2c3c(oc(=O)n3C=CC2c2ccccc2F)c1OC(C)C (stereo unspecified) | 38.5 µM (inactive) | 13.5 µM (inactive) | 33.4 µM (inactive) | – | 44.8 µM (inactive) | 18.7 µM (inactive) | 44.1 µM (inactive) | 75.7 µM (inactive) | 30.5 µM (inactive) | 17.5 µM (inactive) | 26.8 µM (inactive) | 63.8 µM (inactive) | 26.3 µM (inactive) | 30.9 µM (inactive) | 34.4 µM (inactive) | 28.8 µM (inactive) | 20 µM (inactive) | – |
| CC(CC[C@@]1(C)C(=O)CCC2O[C@]21C)[C@H]1C[C@@H](c2ccoc2)OC1=O (stereo partly specified) | 26.5 µM (inactive) | 62.2 µM (inactive) | 28.8 µM (inactive) | > 100 µM (inactive) | 67.3 µM (inactive) | 24.2 µM (inactive) | 26.9 µM (inactive) | 39.3 µM (inactive) | 61.4 µM (inactive) | 19.8 µM (inactive) | > 100 µM (inactive) | 57.9 µM (inactive) | 44.1 µM (inactive) | 57.1 µM (inactive) | 45.6 µM (inactive) | 65.6 µM (inactive) | 61.1 µM (inactive) | – |
| COC(=O)C1CC2CC1C1C2SC(F)(F)C1(F)F (stereo unspecified) | > 100 µM (inactive) | > 100 µM (inactive) | > 100 µM (inactive) | > 100 µM (inactive) | > 100 µM (inactive) | > 100 µM (inactive) | > 100 µM (inactive) | > 100 µM (inactive) | – | > 100 µM (inactive) | > 100 µM (inactive) | > 100 µM (inactive) | > 100 µM (inactive) | > 100 µM (inactive) | > 100 µM (inactive) | > 100 µM (inactive) | > 100 µM (inactive) | – |
| O=C(/C=C/c1ccccc1O)/C=C/c1ccccc1O | 1.52 µM (inactive) | 1.74 µM (inactive) | 1.69 µM (inactive) | – | 1.64 µM (inactive) | 1.73 µM (inactive) | 0.352 µM (active) | 2.7 µM (inactive) | 1.53 µM (inactive) | 0.252 µM (active) | 2.21 µM (inactive) | 1.51 µM (inactive) | 1.95 µM (inactive) | 1.56 µM (inactive) | 2.14 µM (inactive) | – | 1.49 µM (inactive) | 1.24 µM (inactive) |
| CN(C)/N=C1\CC(c2ccccc2)C(C#N)(C#N)C1(C#N)C#N (stereo unspecified) | 8.63 µM (inactive) | 19 µM (inactive) | 17.7 µM (inactive) | 21 µM (inactive) | 21.4 µM (inactive) | 5.56 µM (inactive) | – | 29.7 µM (inactive) | 24.1 µM (inactive) | 27.5 µM (inactive) | 36.4 µM (inactive) | 21 µM (inactive) | 27.6 µM (inactive) | 20.8 µM (inactive) | 26.8 µM (inactive) | 29.9 µM (inactive) | 25.6 µM (inactive) | – |
| CSc1nncc2[nH]c(C)nc12 | > 100 µM (inactive) | > 100 µM (inactive) | > 100 µM (inactive) | > 100 µM (inactive) | > 100 µM (inactive) | > 100 µM (inactive) | > 100 µM (inactive) | – | > 100 µM (inactive) | > 100 µM (inactive) | > 100 µM (inactive) | – | > 100 µM (inactive) | > 100 µM (inactive) | > 100 µM (inactive) | > 100 µM (inactive) | > 100 µM (inactive) | > 100 µM (inactive) |
| [O-]/[N+](=N/c1ncc(-c2ccccc2)cn1)c1ncc(-c2ccccc2)cn1 | > 100 µM (inactive) | 92.7 µM (inactive) | 99.5 µM (inactive) | > 79.8 µM (inactive) | 29.9 µM (inactive) | > 100 µM (inactive) | > 83.8 µM (inactive) | > 76.6 µM (inactive) | > 100 µM (inactive) | 43.4 µM (inactive) | > 100 µM (inactive) | > 100 µM (inactive) | 40.5 µM (inactive) | > 100 µM (inactive) | 62.1 µM (inactive) | 36 µM (inactive) | > 100 µM (inactive) | – |
| COc1cc(C2C(Cl)C(=O)N2NC(=O)c2ccc(NC(C)=O)cc2)cc(Br)c1O (stereo unspecified) | – | – | – | – | > 100 µM (inactive) | > 100 µM (inactive) | > 100 µM (inactive) | – | > 100 µM (inactive) | – | > 100 µM (inactive) | – | – | – | – | – | > 100 µM (inactive) | – |
| CC(CC(C)[C@H]1CCC2[C@H]3C(CC[C@@]21C)[C@@]1(C)CCC(O)C[C@H]1C[C@@H]3O)C(=O)O (stereo partly specified) | > 100 µM (inactive) | > 100 µM (inactive) | > 100 µM (inactive) | > 100 µM (inactive) | > 100 µM (inactive) | > 100 µM (inactive) | – | – | > 100 µM (inactive) | > 100 µM (inactive) | > 100 µM (inactive) | > 100 µM (inactive) | > 100 µM (inactive) | > 100 µM (inactive) | > 100 µM (inactive) | > 100 µM (inactive) | > 100 µM (inactive) | > 100 µM (inactive) |
| CSC1=N/C(=C\c2ccc(C)cc2)C(=O)N1CN1CCCCC1 | – | 72.4 µM (inactive) | 88.7 µM (inactive) | – | 46.6 µM (inactive) | 73.1 µM (inactive) | > 100 µM (inactive) | 56.5 µM (inactive) | > 100 µM (inactive) | 34.3 µM (inactive) | 83.4 µM (inactive) | > 100 µM (inactive) | > 100 µM (inactive) | > 100 µM (inactive) | 84.7 µM (inactive) | 88.1 µM (inactive) | > 100 µM (inactive) | – |
| O=C1C[C@@]23CCC4(CC2CCC[C@H]3O1)OCCO4 (stereo partly specified) | – | > 100 µM (inactive) | > 100 µM (inactive) | > 100 µM (inactive) | > 100 µM (inactive) | > 100 µM (inactive) | > 100 µM (inactive) | > 100 µM (inactive) | > 100 µM (inactive) | > 100 µM (inactive) | > 100 µM (inactive) | > 100 µM (inactive) | > 100 µM (inactive) | > 100 µM (inactive) | > 100 µM (inactive) | > 100 µM (inactive) | > 100 µM (inactive) | – |
| C=CCN1C(=O)/C(=C/c2ccco2)N=C1SC1OC(COC(C)=O)C(OC(C)=O)C(OC(C)=O)C1OC(C)=O (stereo unspecified) | > 100 µM (inactive) | > 100 µM (inactive) | – | – | > 100 µM (inactive) | > 100 µM (inactive) | > 100 µM (inactive) | – | > 100 µM (inactive) | > 100 µM (inactive) | – | 80.2 µM (inactive) | > 100 µM (inactive) | – | > 100 µM (inactive) | 62.5 µM (inactive) | > 100 µM (inactive) | > 100 µM (inactive) |
| CS/C1=C(\c2ccc(C)cc2)N(c2ccccc2)C(=O)C(=O)N(c2ccccc2)/C(c2ccc(C)cc2)=C(/SC)SS1 | > 100 µM (inactive) | > 100 µM (inactive) | > 100 µM (inactive) | > 100 µM (inactive) | > 100 µM (inactive) | > 100 µM (inactive) | > 100 µM (inactive) | – | > 100 µM (inactive) | > 100 µM (inactive) | – | > 100 µM (inactive) | > 100 µM (inactive) | > 100 µM (inactive) | > 100 µM (inactive) | > 100 µM (inactive) | > 100 µM (inactive) | – |
| CC1=C(C#N)c2nc3ccccc3n2C(=O)C1(C)CCO (stereo unspecified) | > 100 µM (inactive) | > 100 µM (inactive) | > 100 µM (inactive) | – | > 100 µM (inactive) | > 100 µM (inactive) | > 100 µM (inactive) | > 100 µM (inactive) | > 100 µM (inactive) | > 100 µM (inactive) | > 100 µM (inactive) | > 100 µM (inactive) | > 100 µM (inactive) | > 100 µM (inactive) | > 100 µM (inactive) | > 100 µM (inactive) | > 100 µM (inactive) | > 100 µM (inactive) |

Source: ChEMBL document CHEMBL1201862, “PubChem BioAssay data set” (2004)
